# From patent US20080009418A1, “Selective Inhibitors” (Alchemia LTD., priority 2004, published 2008)
# Legend:
# Human δ-opioid (DOP) = target: T1, Human δ-opioid (DOP) (Homo sapiens, UniProt P41143); assay: Radioligand binding, human δ-opioid (DOP) membranes, FlashPlate, [3H]-Bremazocine; details: compound at 10 μM, [3H]-Bremazocine
# T1 construct: purchased Perkin Elmer Biosignal
# Procedure, shortened: (§1)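 Cloned human receptor membranes were coated onto FlashPlate wells and incubated with radioligand and compound (added from a 0.5 mM DMSO daughter plate) for 1 hour at room temperature in the dark. Scintillation counting gave percent inhibition, with DMSO defining total and reference ligand defining non-specific binding.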
# Human κ-Opioid (KOP) = target: T2, Human κ-Opioid (KOP) (Homo sapiens, UniProt P41145); assay: Radioligand binding, human κ-opioid (KOP) membranes, filtration, [3H]-Diprenorphine; details: compound at 10 μM, [3H]-Diprenorphine
# T2 construct: purchased Perkin Elmer Biosignal
# Procedure, shortened: (§2)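 Membranes from cloned human receptors were incubated with compound and radioligand for 1 hour at room temperature. Bound ligand was collected on 0.3% PEI-soaked filters, washed with cold 50 mM Tris-HCl pH 7.4, and counted by scintillation. Percent inhibition was computed against DMSO totals and reference-ligand nonspecific wells.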
# Human Melanocortin (MC3) = target: T3, Human Melanocortin (MC3) (Homo sapiens, UniProt P41968); assay: Radioligand binding, human melanocortin MC3 membranes, FlashPlate, [125I]-NDP-αMSH; details: compound at 10 μM, [125I]-NDP-αMSH
# T3 construct: purchased Perkin Elmer Biosignal
# Procedure, shortened: as §1
# Human Melanocortin (MC4) = target: T4, Human Melanocortin (MC4) (Homo sapiens, UniProt P32245); assay: Radioligand binding, human melanocortin MC4 membranes, FlashPlate, [125I]-NDP-αMSH; details: compound at 10 μM, [125I]-NDP-αMSH
# T4 construct: purchased Perkin Elmer Biosignal
# Procedure, shortened: as §1
# Human melanocortin (MC5) = target: T5, Human melanocortin (MC5) (Homo sapiens, UniProt P33032); assay: Radioligand binding, human melanocortin MC5 membranes, FlashPlate, [125I]-NDP-αMSH; details: compound at 10 μM, [125I]-NDP-αMSH
# T5 construct: purchased Perkin Elmer Biosignal
# Procedure, shortened: as §1
# [1] = target: T6, Human melanin-concentrating hormone (MCH1) (Homo sapiens, UniProt Q99705); assay: Radioligand binding, human melanin-concentrating hormone MCH1 membranes, FlashPlate, [125I]-S36057; details: compound at 10 μM
# T6 construct: purchased Perkin Elmer Biosignal
# Procedure, shortened: as §1
# Human μ-opioid (MOP) = target: T7, Human μ-opioid (MOP) (Homo sapiens, UniProt P35372); assay: Radioligand binding, human μ-opioid (MOP) membranes, FlashPlate, [3H]-Naloxone; details: compound at 10 μM, [3H]-Naloxone
# T7 construct: purchased Perkin Elmer Biosignal
# Procedure, shortened: as §1
# Human neurokinin (NK1) = target: T8, Human neurokinin (NK1) (Homo sapiens, UniProt P25103); assay: Radioligand binding, human neurokinin NK1 membranes, filtration, [125I]-Substance P; details: compound at 10 μM, [125I]-Substance P
# T8 construct: purchased Perkin Elmer Biosignal
# Procedure, shortened: as §2
# [2] = target: T9, Human neuropeptide Y (NPY-Y1) (Homo sapiens, UniProt P25929); assay: Radioligand binding, human neuropeptide Y NPY-Y1 membranes, FlashPlate, [125I]-PYY; details: compound at 10 μM, [125I]-PYY
# T9 construct: purchased Perkin Elmer Biosignal
# T9 sequence (P25929 1-384): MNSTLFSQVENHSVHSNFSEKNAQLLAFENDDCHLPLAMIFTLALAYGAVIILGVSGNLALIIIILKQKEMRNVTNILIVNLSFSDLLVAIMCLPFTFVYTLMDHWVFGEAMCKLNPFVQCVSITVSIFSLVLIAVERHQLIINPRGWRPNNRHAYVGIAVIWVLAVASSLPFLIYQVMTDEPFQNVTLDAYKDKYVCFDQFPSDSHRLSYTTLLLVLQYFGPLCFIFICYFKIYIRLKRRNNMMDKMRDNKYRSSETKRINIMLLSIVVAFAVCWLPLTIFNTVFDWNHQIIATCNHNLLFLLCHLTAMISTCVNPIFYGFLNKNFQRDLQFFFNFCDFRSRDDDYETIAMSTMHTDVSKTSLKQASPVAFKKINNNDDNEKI
# Procedure, shortened: as §1
# Human opioid (ORL1) = target: T10, Human opioid (ORL1) (Homo sapiens, UniProt P41146); assay: Radioligand binding, human opioid ORL1 membranes, FlashPlate, [125I]-Nociceptin; details: compound at 10 μM, [125I]-Nociceptin
# T10 construct: purchased Perkin Elmer Biosignal
# Procedure, shortened: as §1
# Mouse urotensin (mUR2) = target: T11, Mouse urotensin (mUR2) (Mus musculus, UniProt Q8VIH9); assay: Radioligand binding, mouse urotensin mUR2 membranes, FlashPlate, [125I]-Urotensin II; details: compound at 10 μM, [125I]-Urotensin II
# T11 construct: purchased Perkin Elmer Biosignal
# T11 sequence (Q8VIH9 1-385): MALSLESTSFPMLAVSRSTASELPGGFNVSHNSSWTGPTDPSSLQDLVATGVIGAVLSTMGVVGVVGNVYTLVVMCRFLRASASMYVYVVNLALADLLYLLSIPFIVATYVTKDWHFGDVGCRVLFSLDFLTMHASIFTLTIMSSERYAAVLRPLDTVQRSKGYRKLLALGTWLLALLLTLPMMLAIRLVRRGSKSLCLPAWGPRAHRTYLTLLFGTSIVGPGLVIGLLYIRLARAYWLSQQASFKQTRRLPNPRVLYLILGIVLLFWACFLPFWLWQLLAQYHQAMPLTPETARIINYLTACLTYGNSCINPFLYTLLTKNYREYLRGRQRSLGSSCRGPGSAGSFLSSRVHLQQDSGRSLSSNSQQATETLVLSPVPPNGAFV
# Procedure, shortened: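 Cloned mouse urotensin (mUR2) receptor membranes from Perkin Elmer Biosignal were immobilized in FlashPlate microplates using a proprietary coating. Each well got 19.5 μl buffer, then 0.5 μl of DMSO, reference ligand, or compound. Adding 5 μl of [125I]-Urotensin II, diluted to 5× final concentration in binding buffer, started binding. Plates were sealed with TopSeal-A and incubated 1 hour at room temperature in the dark. Wells were counted for 30 seconds each on a TopCount after a 60-second delay, and percentage inhibition was calculated.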
# T2 sequence (P41145 whole entry): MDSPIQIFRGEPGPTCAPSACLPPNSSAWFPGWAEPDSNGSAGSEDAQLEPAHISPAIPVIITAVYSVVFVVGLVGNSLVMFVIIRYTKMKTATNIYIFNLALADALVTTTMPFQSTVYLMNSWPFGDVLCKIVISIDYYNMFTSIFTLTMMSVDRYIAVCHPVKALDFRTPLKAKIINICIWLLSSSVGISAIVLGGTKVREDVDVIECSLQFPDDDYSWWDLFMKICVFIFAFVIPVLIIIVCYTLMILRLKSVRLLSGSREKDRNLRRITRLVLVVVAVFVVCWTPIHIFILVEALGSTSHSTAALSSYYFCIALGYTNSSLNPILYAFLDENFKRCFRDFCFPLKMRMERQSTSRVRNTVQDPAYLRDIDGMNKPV
# T1 sequence (P41143 whole entry): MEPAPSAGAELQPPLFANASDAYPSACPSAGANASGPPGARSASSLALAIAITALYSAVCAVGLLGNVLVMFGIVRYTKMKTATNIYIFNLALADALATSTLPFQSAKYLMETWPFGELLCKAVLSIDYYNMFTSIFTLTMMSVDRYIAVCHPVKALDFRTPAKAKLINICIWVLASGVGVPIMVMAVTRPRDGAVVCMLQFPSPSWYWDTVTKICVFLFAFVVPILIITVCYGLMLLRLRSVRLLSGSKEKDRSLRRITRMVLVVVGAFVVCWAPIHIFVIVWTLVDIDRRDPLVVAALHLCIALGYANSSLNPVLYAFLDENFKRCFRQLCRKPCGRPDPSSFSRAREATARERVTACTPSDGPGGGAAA
# T3 sequence (P41968 whole entry): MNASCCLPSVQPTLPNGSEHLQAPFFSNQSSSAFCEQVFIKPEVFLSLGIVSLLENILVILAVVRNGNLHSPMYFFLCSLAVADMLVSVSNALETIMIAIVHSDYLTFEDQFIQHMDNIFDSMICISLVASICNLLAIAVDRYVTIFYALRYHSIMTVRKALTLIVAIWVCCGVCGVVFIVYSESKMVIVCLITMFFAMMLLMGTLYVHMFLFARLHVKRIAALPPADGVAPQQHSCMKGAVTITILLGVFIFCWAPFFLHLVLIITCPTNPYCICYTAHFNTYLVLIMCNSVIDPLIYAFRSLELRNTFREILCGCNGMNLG
# T5 sequence (P33032 whole entry): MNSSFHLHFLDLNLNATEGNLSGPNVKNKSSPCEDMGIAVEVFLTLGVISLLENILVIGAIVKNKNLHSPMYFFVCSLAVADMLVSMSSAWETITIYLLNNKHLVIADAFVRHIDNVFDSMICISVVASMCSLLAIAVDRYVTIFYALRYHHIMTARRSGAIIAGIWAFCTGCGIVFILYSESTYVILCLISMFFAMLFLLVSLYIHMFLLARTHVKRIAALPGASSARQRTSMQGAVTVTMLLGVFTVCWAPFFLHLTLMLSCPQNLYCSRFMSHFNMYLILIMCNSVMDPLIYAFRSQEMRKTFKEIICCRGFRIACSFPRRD
# T10 sequence (P41146 whole entry): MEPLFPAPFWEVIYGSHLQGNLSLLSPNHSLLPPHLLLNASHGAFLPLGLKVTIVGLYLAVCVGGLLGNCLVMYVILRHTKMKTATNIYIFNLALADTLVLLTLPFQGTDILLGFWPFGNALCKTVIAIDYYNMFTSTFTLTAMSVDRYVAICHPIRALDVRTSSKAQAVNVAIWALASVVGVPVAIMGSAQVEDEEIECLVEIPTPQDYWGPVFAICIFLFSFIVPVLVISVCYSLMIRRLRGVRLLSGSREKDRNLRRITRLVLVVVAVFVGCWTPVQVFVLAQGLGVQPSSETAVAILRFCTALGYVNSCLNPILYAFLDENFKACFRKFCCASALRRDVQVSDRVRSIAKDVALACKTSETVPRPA
# T7 sequence (P35372 whole entry): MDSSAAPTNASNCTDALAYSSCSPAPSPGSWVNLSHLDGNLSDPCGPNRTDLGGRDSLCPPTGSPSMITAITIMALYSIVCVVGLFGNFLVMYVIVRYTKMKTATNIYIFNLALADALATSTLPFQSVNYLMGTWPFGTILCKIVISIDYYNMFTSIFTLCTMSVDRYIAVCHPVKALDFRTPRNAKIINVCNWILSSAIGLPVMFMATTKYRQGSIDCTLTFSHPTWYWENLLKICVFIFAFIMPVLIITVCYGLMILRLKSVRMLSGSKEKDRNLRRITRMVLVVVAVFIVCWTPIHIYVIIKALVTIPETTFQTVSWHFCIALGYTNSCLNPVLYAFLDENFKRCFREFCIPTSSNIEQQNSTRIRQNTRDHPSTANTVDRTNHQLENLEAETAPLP
# T4 sequence (P32245 whole entry): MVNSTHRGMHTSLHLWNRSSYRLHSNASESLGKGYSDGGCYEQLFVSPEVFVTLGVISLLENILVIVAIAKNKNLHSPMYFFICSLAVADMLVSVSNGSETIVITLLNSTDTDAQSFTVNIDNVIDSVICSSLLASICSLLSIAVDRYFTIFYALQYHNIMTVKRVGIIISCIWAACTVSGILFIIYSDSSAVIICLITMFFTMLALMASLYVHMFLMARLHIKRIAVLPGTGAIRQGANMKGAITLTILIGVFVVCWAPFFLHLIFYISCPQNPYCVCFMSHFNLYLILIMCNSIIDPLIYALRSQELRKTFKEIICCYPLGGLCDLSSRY
# T8 sequence (P25103 whole entry): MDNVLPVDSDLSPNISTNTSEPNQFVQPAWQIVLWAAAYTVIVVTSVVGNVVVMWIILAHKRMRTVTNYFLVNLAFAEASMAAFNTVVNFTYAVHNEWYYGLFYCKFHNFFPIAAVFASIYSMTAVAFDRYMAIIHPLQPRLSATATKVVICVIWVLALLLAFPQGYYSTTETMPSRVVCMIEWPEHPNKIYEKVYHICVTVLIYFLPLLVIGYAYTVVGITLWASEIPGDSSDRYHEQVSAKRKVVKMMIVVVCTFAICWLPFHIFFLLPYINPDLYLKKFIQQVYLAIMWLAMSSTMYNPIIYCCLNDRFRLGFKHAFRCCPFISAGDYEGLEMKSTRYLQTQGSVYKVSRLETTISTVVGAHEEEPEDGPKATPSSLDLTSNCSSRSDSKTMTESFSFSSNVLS
# T6 sequence (Q99705 whole entry): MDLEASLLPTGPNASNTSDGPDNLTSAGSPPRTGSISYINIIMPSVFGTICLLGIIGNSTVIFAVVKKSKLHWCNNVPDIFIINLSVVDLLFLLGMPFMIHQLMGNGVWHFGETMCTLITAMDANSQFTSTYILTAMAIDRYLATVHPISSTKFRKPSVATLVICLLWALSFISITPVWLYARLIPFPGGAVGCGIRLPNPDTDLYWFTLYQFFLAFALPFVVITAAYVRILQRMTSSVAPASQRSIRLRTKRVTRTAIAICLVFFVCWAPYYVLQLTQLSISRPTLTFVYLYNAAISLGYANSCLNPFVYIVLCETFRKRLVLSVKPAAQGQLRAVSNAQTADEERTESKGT
Structure (SMILES),"A1: inhibition of radioligand binding, human δ-opioid (DOP) (Human δ-opioid (DOP))","A2: inhibition of radioligand binding, human κ-opioid (KOP) (Human κ-Opioid (KOP))","A3: inhibition of radioligand binding, human melanocortin (MC3) (Human Melanocortin (MC3))","A4: inhibition of radioligand binding, human melanocortin (MC4) (Human Melanocortin (MC4))","A5: inhibition of radioligand binding, human melanocortin (MC5) (Human melanocortin (MC5))","A6: inhibition of radioligand binding, human melanin-concentrating hormone (MCH1) ([1]; [125I]-S36057)","A7: inhibition of radioligand binding, human μ-opioid (MOP) (Human μ-opioid (MOP))","A8: inhibition of radioligand binding, human neurokinin (NK1) (Human neurokinin (NK1))","A9: inhibition of radioligand binding, human neuropeptide Y (NPY-Y1) [2]","A10: inhibition of radioligand binding, human opioid (ORL1) (Human opioid (ORL1))","A11: inhibition of radioligand binding, mouse urotensin (mUR2) (Mouse urotensin (mUR2))",other results
CSC1OC(COCc2ccccc2)C(O)C(OCc2ccc3ccccc3c2)C1NC(=O)CCNC(=N)N (stereo not shown) [compound 303],− (“−” indicates less than 50% inhibition at 10 μM),− (“−” indicates less than 50% inhibition at 10 μM),− (“−” indicates less than 50% inhibition at 10 μM),+ (“+” indicates greater than 50% inhibition at 10 μM),+ (“+” indicates greater than 50% inhibition at 10 μM),− (“−” indicates less than 50% inhibition at 10 μM),− (“−” indicates less than 50% inhibition at 10 μM),+ (“+” indicates greater than 50% inhibition at 10 μM),− (“−” indicates less than 50% inhibition at 10 μM),− (“−” indicates less than 50% inhibition at 10 μM),− (“−” indicates less than 50% inhibition at 10 μM),
CSC1OC(COCc2ccc(-c3ccccc3)cc2)C(O)C(OCc2ccccc2)C1NC(=O)CCCN (stereo not shown) [compound 258],,,,,,,,,,,,"A1: inhibition of radioligand binding (Human δ-opioid (DOP); FlashPlate): − (“−” indicates less than 50% inhibition at 10 μM); A2: inhibition of radioligand binding (Human κ-Opioid (KOP); filtration): − (“−” indicates less than 50% inhibition at 10 μM); A3: inhibition of radioligand binding (Human Melanocortin (MC3); FlashPlate): − (“−” indicates less than 50% inhibition at 10 μM); A4: inhibition of radioligand binding (Human Melanocortin (MC4); FlashPlate): − (“−” indicates less than 50% inhibition at 10 μM); A5: inhibition of radioligand binding (Human melanocortin (MC5); FlashPlate): − (“−” indicates less than 50% inhibition at 10 μM); A6: inhibition of radioligand binding ([1]; [125I]-S36057, FlashPlate): − (“−” indicates less than 50% inhibition at 10 μM); A7: inhibition of radioligand binding (Human μ-opioid (MOP); FlashPlate): − (“−” indicates less than 50% inhibition at 10 μM); A8: inhibition of radioligand binding (Human neurokinin (NK1); filtration): + (“+” indicates greater than 50% inhibition at 10 μM); A9: inhibition of radioligand binding ([2]; FlashPlate): − (“−” indicates less than 50% inhibition at 10 μM); A10: inhibition of radioligand binding (Human opioid (ORL1); FlashPlate): − (“−” indicates less than 50% inhibition at 10 μM); A11: inhibition of radioligand binding (Mouse urotensin (mUR2); FlashPlate): − (“−” indicates less than 50% inhibition at 10 μM)"
CO[C@H]1[C@H](O)[C@@H](COCc2ccc(Cl)cc2)OC(OCc2ccc(Cl)cc2)[C@@H]1NC(=O)CCNC(=N)N (stereo partly shown) [compound 106],,,,,,,,,,,,"A1 radioligand binding, percentage inhibition (Human δ-opioid (DOP)): − (“−” indicates less than 50% inhibition at 10 μM); A2 radioligand binding, percentage inhibition (Human κ-Opioid (KOP)): − (“−” indicates less than 50% inhibition at 10 μM); A3 radioligand binding, percentage inhibition (Human Melanocortin (MC3)): + (“+” indicates greater than 50% inhibition at 10 μM); A4 radioligand binding, percentage inhibition (Human Melanocortin (MC4)): + (“+” indicates greater than 50% inhibition at 10 μM); A5 radioligand binding, percentage inhibition (Human melanocortin (MC5)): + (“+” indicates greater than 50% inhibition at 10 μM); A6 radioligand binding, percentage inhibition ([1]; [125I]-S36057): − (“−” indicates less than 50% inhibition at 10 μM); A7 radioligand binding, percentage inhibition (Human μ-opioid (MOP)): − (“−” indicates less than 50% inhibition at 10 μM); A8 radioligand binding, percentage inhibition (Human neurokinin (NK1)): + (“+” indicates greater than 50% inhibition at 10 μM); A9 radioligand binding, percentage inhibition [2]: − (“−” indicates less than 50% inhibition at 10 μM); A10 radioligand binding, percentage inhibition (Human opioid (ORL1)): − (“−” indicates less than 50% inhibition at 10 μM); A11 radioligand binding, percentage inhibition (Mouse urotensin (mUR2)): − (“−” indicates less than 50% inhibition at 10 μM)"
"NCCC(=O)NC1C(OCc2ccc(Cl)cc2)OC(COCc2ccc3ccccc3c2)C(O)C1OCc1ccccc1 (single isomer, unassigned) [compound 484]",− (“−” indicates less than 50% inhibition at 10 μM),− (“−” indicates less than 50% inhibition at 10 μM),− (“−” indicates less than 50% inhibition at 10 μM),− (“−” indicates less than 50% inhibition at 10 μM),+ (“+” indicates greater than 50% inhibition at 10 μM),− (“−” indicates less than 50% inhibition at 10 μM),− (“−” indicates less than 50% inhibition at 10 μM),+ (“+” indicates greater than 50% inhibition at 10 μM),− (“−” indicates less than 50% inhibition at 10 μM),− (“−” indicates less than 50% inhibition at 10 μM),− (“−” indicates less than 50% inhibition at 10 μM),
N=C(N)NCCC(=O)N[C@H]1C(OCc2ccc(Cl)cc2)O[C@H](COCc2ccc(Cl)cc2)[C@@H](O)[C@@H]1OCc1ccc(Cl)cc1 (stereo partly shown) [compound 526],− (“−” indicates less than 50% inhibition at 10 μM),,,,+ (“+” indicates greater than 50% inhibition at 10 μM),+ (“+” indicates greater than 50% inhibition at 10 μM),− (“−” indicates less than 50% inhibition at 10 μM),+ (“+” indicates greater than 50% inhibition at 10 μM),− (“−” indicates less than 50% inhibition at 10 μM),− (“−” indicates less than 50% inhibition at 10 μM),− (“−” indicates less than 50% inhibition at 10 μM),"A2: inhibition of radioligand binding, human κ-opioid (KOP) (Human κ-Opioid (KOP); 10 µM): − (“−” indicates less than 50% inhibition at 10 μM); A3: inhibition of radioligand binding, human melanocortin (MC3) (Human Melanocortin (MC3); 10 µM): − (“−” indicates less than 50% inhibition at 10 μM); A4: inhibition of radioligand binding, human melanocortin (MC4) (Human Melanocortin (MC4); 10 µM): − (“−” indicates less than 50% inhibition at 10 μM)"
